Results: the NIST ThermoML archive (doi:10.1021/je060271a)

Settings: 323.15 K, Liquid, Vibrating tube method

CCCCC(=O)OCC(COC(=O)CCCC)(COC(=O)CCCC)COC(=O)CCCC [pentaerythritol tetrapentanoate]
Settings | mass density [kg/m3]
15928 kPa | 1005.6
15948 kPa | 1005.6
15968 kPa | 1005.5
15988 kPa | 1005.5
16012 kPa | 1005.6
16032 kPa | 1005.7
16056 kPa | 1005.6
16076 kPa | 1005.7
16096 kPa | 1005.7
16116 kPa | 1005.7
16141 kPa | 1005.7
16161 kPa | 1005.6
16185 kPa | 1005.7
16205 kPa | 1005.7
16227 kPa | 1005.7
16252 kPa | 1005.7
16273 kPa | 1005.7
16293 kPa | 1005.7
16318 kPa | 1005.8
16339 kPa | 1005.8
16360 kPa | 1005.8
16385 kPa | 1005.8
16406 kPa | 1006
16427 kPa | 1005.8
16453 kPa | 1005.9
16474 kPa | 1006
16495 kPa | 1005.9
16521 kPa | 1005.9
16542 kPa | 1006
16564 kPa | 1006
16586 kPa | 1006
16612 kPa | 1006
16634 kPa | 1006.1
16660 kPa | 1006.1
16681 kPa | 1006
16704 kPa | 1006.1
16730 kPa | 1006.2
16752 kPa | 1006.1
16774 kPa | 1006.1
16800 kPa | 1006.1
16823 kPa | 1006.1
16845 kPa | 1006.2
16872 kPa | 1006.2
16894 kPa | 1006.1
16917 kPa | 1006.2
16944 kPa | 1006.3
16967 kPa | 1006.3
16990 kPa | 1006.2
17017 kPa | 1006.1
17040 kPa | 1006.2
17063 kPa | 1006.2
17090 kPa | 1006.4
17114 kPa | 1006.3
17138 kPa | 1006.4
17161 kPa | 1006.3
17189 kPa | 1006.4
17212 kPa | 1006.4
17236 kPa | 1006.4
17264 kPa | 1006.4
17288 kPa | 1006.4
17312 kPa | 1006.4
17335 kPa | 1006.5
17364 kPa | 1006.5
17388 kPa | 1006.6
17412 kPa | 1006.6
17441 kPa | 1006.5
17467 kPa | 1006.5
17491 kPa | 1006.5
17520 kPa | 1006.6
17544 kPa | 1006.6
17568 kPa | 1006.6
17593 kPa | 1006.6
17623 kPa | 1006.7
17647 kPa | 1006.7
17672 kPa | 1006.7
17702 kPa | 1006.8
17726 kPa | 1006.7
17756 kPa | 1006.6
17781 kPa | 1006.7
17807 kPa | 1006.7
17832 kPa | 1006.7
17862 kPa | 1006.8
17887 kPa | 1006.9
17913 kPa | 1006.7
17944 kPa | 1006.8
17969 kPa | 1006.8
18000 kPa | 1006.9
18025 kPa | 1006.8
18051 kPa | 1006.9
18077 kPa | 1006.9
18108 kPa | 1007
18134 kPa | 1007
18161 kPa | 1007.1
18192 kPa | 1007
18218 kPa | 1007
18249 kPa | 1007.1
18276 kPa | 1007.2
18303 kPa | 1007.1
18329 kPa | 1007.1
18361 kPa | 1007.1
18388 kPa | 1007.1
18415 kPa | 1007.1
18447 kPa | 1007.2
18475 kPa | 1007.2
18502 kPa | 1007.2
18530 kPa | 1007.2
18563 kPa | 1007.2
18590 kPa | 1007.3
18618 kPa | 1007.4
18651 kPa | 1007.4
18679 kPa | 1007.4
18707 kPa | 1007.3
18740 kPa | 1007.4
18768 kPa | 1007.3
18797 kPa | 1007.4
18831 kPa | 1007.4
18859 kPa | 1007.4
18888 kPa | 1007.4
18917 kPa | 1007.4
18952 kPa | 1007.5
18980 kPa | 1007.5
19014 kPa | 1007.5
19043 kPa | 1007.6
19072 kPa | 1007.5
19101 kPa | 1007.7
19136 kPa | 1007.6
19166 kPa | 1007.7
19196 kPa | 1007.7
19232 kPa | 1007.6
19262 kPa | 1007.7
19292 kPa | 1007.8
19322 kPa | 1007.7
19388 kPa | 1007.8
19515 kPa | 1007.8
19552 kPa | 1007.8
19582 kPa | 1007.8
19613 kPa | 1008
19650 kPa | 1007.9
19682 kPa | 1008
19716 kPa | 1008
19747 kPa | 1008.1
19778 kPa | 1007.9
19817 kPa | 1008
19848 kPa | 1008
19887 kPa | 1008
19919 kPa | 1008
19952 kPa | 1008.1
19992 kPa | 1008.1
20023 kPa | 1008.2
20052 kPa | 1008.2
20085 kPa | 1008.2
20113 kPa | 1008.2
20143 kPa | 1008.2
20171 kPa | 1008.3
20199 kPa | 1008.2
20232 kPa | 1008.3
20260 kPa | 1008.2
20288 kPa | 1008.4
20321 kPa | 1008.4
20349 kPa | 1008.4
20383 kPa | 1008.5
20411 kPa | 1008.4
20440 kPa | 1008.5
20474 kPa | 1008.4
20502 kPa | 1008.4
20532 kPa | 1008.5
20561 kPa | 1008.5
20596 kPa | 1008.5
20625 kPa | 1008.6
20659 kPa | 1008.6
20689 kPa | 1008.5
20718 kPa | 1008.6
20747 kPa | 1008.6
20783 kPa | 1008.8
20813 kPa | 1008.6
20848 kPa | 1008.7
20877 kPa | 1008.7
20908 kPa | 1008.7
20944 kPa | 1008.8
20974 kPa | 1008.8
21004 kPa | 1008.8
21035 kPa | 1008.8
21072 kPa | 1008.7
21102 kPa | 1008.8
21133 kPa | 1008.9
21170 kPa | 1008.8
21202 kPa | 1009
21233 kPa | 1008.9
21271 kPa | 1008.9
21302 kPa | 1009
21334 kPa | 1009.1
21366 kPa | 1009
21404 kPa | 1009
21436 kPa | 1009.1
21467 kPa | 1009.1
21506 kPa | 1009.1
21538 kPa | 1009
21570 kPa | 1009.1
21602 kPa | 1009.2
21640 kPa | 1009.2
21673 kPa | 1009.2
21712 kPa | 1009.2
21744 kPa | 1009.1
21778 kPa | 1009.3
21817 kPa | 1009.3
21851 kPa | 1009.3
21883 kPa | 1009.4
21916 kPa | 1009.3
21956 kPa | 1009.5
21989 kPa | 1009.3
22029 kPa | 1009.4
22063 kPa | 1009.6
22097 kPa | 1009.4
22137 kPa | 1009.6
22171 kPa | 1009.6
22206 kPa | 1009.5
22241 kPa | 1009.5
22282 kPa | 1009.6
22316 kPa | 1009.7
22351 kPa | 1009.7
22393 kPa | 1009.6
22429 kPa | 1009.6
22457 kPa | 1009.7
22500 kPa | 1009.8
22542 kPa | 1009.8
22578 kPa | 1009.8
22621 kPa | 1009.9
22658 kPa | 1009.7
22697 kPa | 1009.8
22736 kPa | 1009.9
22782 kPa | 1009.8
22818 kPa | 1009.9
22851 kPa | 1010
22882 kPa | 1010
22921 kPa | 1010.1
22951 kPa | 1009.9
22978 kPa | 1010.1
23006 kPa | 1010
23030 kPa | 1010
23059 kPa | 1010.1
23083 kPa | 1010.2
23108 kPa | 1010.1
23132 kPa | 1010.2
23156 kPa | 1010.1
23180 kPa | 1010.1
23209 kPa | 1010.1
23233 kPa | 1010.2
23262 kPa | 1010.2
23287 kPa | 1010.1
23311 kPa | 1010.3
23336 kPa | 1010.3
23364 kPa | 1010.3
23389 kPa | 1010.3
23414 kPa | 1010.4
23444 kPa | 1010.3
23468 kPa | 1010.3
23497 kPa | 1010.4
23523 kPa | 1010.3
23547 kPa | 1010.4
23572 kPa | 1010.4
23603 kPa | 1010.4
23627 kPa | 1010.5
23657 kPa | 1010.5
23683 kPa | 1010.5
23708 kPa | 1010.5
23738 kPa | 1010.6
23763 kPa | 1010.6
23790 kPa | 1010.6
23820 kPa | 1010.5
23846 kPa | 1010.7
23871 kPa | 1010.6
23902 kPa | 1010.5
23928 kPa | 1010.7
23954 kPa | 1010.7
23985 kPa | 1010.6
24011 kPa | 1010.6
24037 kPa | 1010.7
24063 kPa | 1010.8
24094 kPa | 1010.9
24121 kPa | 1010.7
24148 kPa | 1010.8
24180 kPa | 1010.8
24206 kPa | 1010.7
24237 kPa | 1010.8
24264 kPa | 1010.9
24291 kPa | 1010.8
24318 kPa | 1010.9
24350 kPa | 1010.8
24378 kPa | 1010.9
24405 kPa | 1011
24437 kPa | 1010.9
24464 kPa | 1010.9
24497 kPa | 1011.1
24525 kPa | 1011
24552 kPa | 1011
24580 kPa | 1011.1
24612 kPa | 1011
24640 kPa | 1011
24667 kPa | 1011.2
24701 kPa | 1011.1
24728 kPa | 1011.1
24761 kPa | 1011.1
24789 kPa | 1011.2
24817 kPa | 1011.2
24845 kPa | 1011.1
24879 kPa | 1011.3
24908 kPa | 1011.2
24936 kPa | 1011.2
24970 kPa | 1011.3
24999 kPa | 1011.2
25027 kPa | 1011.3
25056 kPa | 1011.3
25091 kPa | 1011.3
25119 kPa | 1011.3
25148 kPa | 1011.4
25182 kPa | 1011.4
25212 kPa | 1011.5
25247 kPa | 1011.4
25278 kPa | 1011.4
25307 kPa | 1011.4
25336 kPa | 1011.4
